Test results reported in patent US8513224B2, “Crystalline form C of tigecycline dihydrochloride and methods for its preparation” (Sandoz AG, priority 2008, dated 2013).
Structures can show the parent of a compound that is named as a salt.

Legend:
Format in all cases: physicochemical
[1] = Physical stability at elevated temperatures (impurities by HPLC); settings: for 4-Epi-Tigecycline 7 days at 80° C. / Total impurities 7 days at 80° C. / Stability in words (impurities after storage): stored 7 days at 80° C.; for 4-Epi-Tigecycline 7 days at 80° C. / Total impurities 7 days at 80° C.: in % (unit assumed)
Source text: Tigecycline must be available in a physically stable form as well, in order to avoid degradation and as a consequence the building of undesired byproducts. Table 4 compares the stability data of the different crystalline forms of Tigecycline free base and Tigecycline hydrochloride with these of crystalline form C of Tigecycline dihydrochloride from the present invention.
Therefore crystalline form C of Tigecycline dihydrochloride in essentially pure polymorphic form is more preferred than amorphous Tigecycline dihydrochloride.

[2] = physchem
Experimental: The finished dosage form contains lyophilized amorphous Tigecycline respectively Tigecycline hydrochloride. Before lyophilizing, Tigecycline respectively acid addition salts of Tigecycline are dissolved in water, thus water solubility is an important factor to consider.
A UV-vis Lambda 35 spectrophotometer (Perkin-Elmer) was used (λ=347 nm, 1.0 cm quartz cells). Perkin Elmer® UV Win Lab-5.1 software was used.
A saturated solution of Tigecycline, Tigecycline hydrochloride or Tigecycline dihydrochloride in distilled water was prepared and the suspension was stirred at room temperature for 30 minutes with a stirring speed of 1000 U/min. The suspension was filtered through a 0.45 μm filter. Finally the resulting solution was diluted 10000-fold and measured against water at a wavelength of 347 nm.

[3] = Water content on storage at defined relative humidity; settings: stored at about 0% relative humidity
Source text: Form C of Tigecycline dihydrochloride is an anhydrous form, containing no water when stored at about 0% relative humidity and containing not more than about 0.8% to 1.7% e.g. when stored at about 50% relative humidity.

[4] = Thermodynamical stability (crystal structure after storage); settings: stored 7 days at 80° C.

Row | SMILES | 4-Epi-Tigecycline at ambient conditions [1] [%] | Total impurities at ambient conditions [1] [%] | 4-Epi-Tigecycline 7 days at 80° C. [1] | Total impurities 7 days at 80° C. [1] | also measured
1 | CN(C)c1cc(NC(=O)CNC(C)(C)C)c(O)c2c1C[C@H]1C[C@H]3[C@H](N(C)C)C(O)=C(C(N)=O)C(=O)[C@@]3(O)C(O)=C1C2=O [WO 2007/127292 II, Tigecycline] |  |  |  |  | 4-Epi-Tigecycline at ambient conditions ([1]; listed as WO 2007/127792 II): 0.17%; Total impurities at ambient conditions ([1]; listed as WO 2007/127792 II): 0.24%; 4-Epi-Tigecycline 7 days at 80° C. ([1]; listed as WO 2007/127792 II): 0.38; Total impurities 7 days at 80° C. ([1]; listed as WO 2007/127792 II): 0.91
2 | CN(C)c1cc(NC(=O)CNC(C)(C)C)c(O)c2c1C[C@H]1C[C@H]3[C@H](N(C)C)C(O)=C(C(N)=O)C(=O)[C@@]3(O)C(O)=C1C2=O [A (xHCl), Tigecycline hydrochloride] |  |  |  |  | 4-Epi-Tigecycline at ambient conditions ([1]; hydrochloride): 0.84%; Total impurities at ambient conditions ([1]; hydrochloride): 1.07%; 4-Epi-Tigecycline 7 days at 80° C. ([1]; hydrochloride): 0.89; Total impurities 7 days at 80° C. ([1]; hydrochloride): 1.81; Water solubility, Concentration ([2]; 30 min): 503 mg/mL; solubility at 30 min ([2]; water, thermodynamic from solid, Water solubility, Concentration): 503 mg/mL
3 | CN(C)c1cc(NC(=O)CNC(C)(C)C)c(O)c2c1C[C@H]1C[C@H]3[C@H](N(C)C)C(=O)C(C(N)=O)=C(O)[C@@]3(O)C(=O)C1=C2O [WO 2008/066935 XII, Tigecycline] | 0.15 | 0.4 | 0.70 | 4.38 | 
4 | CN(C)c1cc(NC(=O)CNC(C)(C)C)c(O)c2c1C[C@H]1C[C@H]3[C@H](N(C)C)C(O)=C(C(N)=O)C(=O)[C@@]3(O)C(O)=C1C2=O [C (x2HCl), Tigecycline dihydrochloride] | 0.73 | 0.83 | 2.40 | 2.60 | Water content [3]: no water; Change of crystal structure on storage [4]: did not change its crystal structure; Water solubility compared with the other crystalline forms [2]: highest water solubility
5 | CN(C)c1cc(NC(=O)CNC(C)(C)C)c(O)c2c1C[C@H]1C[C@H]3[C@H](N(C)C)C(O)=C(C(N)=O)C(=O)[C@@]3(O)C(O)=C1C2=O.Cl.Cl [C + 20% amorphous (x2HCl), Tigecycline dihydrochloride] | 1.73 | 1.81 | 4.34 | 4.88 | Stability in words (impurities after storage) [1]: less stable than a pure polymorphic form C
6 | CN(C)c1cc(NC(=O)CNC(C)(C)C)c(O)c2c1C[C@H]1C[C@H]3[C@H](N(C)C)C(O)=C(C(N)=O)C(=O)[C@@]3(O)C(O)=C1C2=O [WO 2006/128150 V, Tigecycline] | < 0.05 | 0.22 | 0.18 | 0.37 | 
7 | CN(C)c1cc(NC(=O)CNC(C)(C)C)c(O)c2c1C[C@H]1C[C@H]3[C@H](N(C)C)C(O)=C(C(N)=O)C(=O)[C@@]3(O)C(O)=C1C2=O [WO 2006/128150 I, Tigecycline] | 0.36 | 0.75 | 2.15 | 11.20 | Stability in words (impurities after storage) [1]: tremendous increase in total impurities
8 | CN(C)c1cc(NC(=O)CNC(C)(C)C)c(O)c2c1C[C@H]1C[C@H]3[C@H](N(C)C)C(=O)C(C(N)=O)=C(O)[C@@]3(O)C(=O)C1=C2O [WO 2006/128150 III, Tigecycline] | 0.16 | 0.16 | 2.18 | 4.46 | 
9 | CN(C)c1cc(NC(=O)CNC(C)(C)C)c(O)c2c1C[C@H]1C[C@H]3[C@H](N(C)C)C(O)=C(C(N)=O)C(=O)[C@@]3(O)C(O)=C1C2=O [WO 2006/128150 IV, Tigecycline] | 0.23 | 0.4 | 0.38 | 0.87 | 
10 | CN(C)c1cc(NC(=O)CNC(C)(C)C)c(O)c2c1C[C@H]1C[C@H]3[C@H](N(C)C)C(O)=C(C(N)=O)C(=O)[C@@]3(O)C(O)=C1C2=O [WO 2006/128150 II, Tigecycline] | 1.04 | 1.6 | 10.83 | 18.44 | Stability in words (impurities after storage) [1]: tremendous increase in total impurities
11 | CN(C)c1cc(NC(=O)CNC(C)(C)C)c(O)c2c1C[C@H]1C[C@H]3[C@H](N(C)C)C(O)=C(C(N)=O)C(=O)[C@@]3(O)C(O)=C1C2=O [WO 2007/127292 I, Tigecycline] |  |  |  |  | 4-Epi-Tigecycline at ambient conditions ([1]; listed as WO 2007/127792 I): 0.34%; Total impurities at ambient conditions ([1]; listed as WO 2007/127792 I): 0.59%; 4-Epi-Tigecycline 7 days at 80° C. ([1]; listed as WO 2007/127792 I): 1.26; Total impurities 7 days at 80° C. ([1]; listed as WO 2007/127792 I): 2.22
12 | CN(C)c1cc(NC(=O)CNC(C)(C)C)c(O)c2c1C[C@H]1C[C@H]3[C@H](N(C)C)C(O)=C(C(N)=O)C(=O)[C@@]3(O)C(O)=C1C2=O [B (xHCl), Tigecycline hydrochloride] |  |  |  |  | 4-Epi-Tigecycline at ambient conditions ([1]; hydrochloride): 0.93%; Total impurities at ambient conditions ([1]; hydrochloride): 1.91%; 4-Epi-Tigecycline 7 days at 80° C. ([1]; hydrochloride): 1.60; Total impurities 7 days at 80° C. ([1]; hydrochloride): 4.19
13 | CN(C)c1cc(NC(=O)CNC(C)(C)C)c(O)c2c1C[C@H]1C[C@H]3[C@H](N(C)C)C(O)=C(C(N)=O)C(=O)[C@@]3(O)C(O)=C1C2=O [amorphous (x2HCl), Tigecycline dihydrochloride] |  |  |  |  | 4-Epi-Tigecycline at ambient conditions ([1]; dihydrochloride): 4.97%; Total impurities at ambient conditions ([1]; dihydrochloride): 5.05%; 4-Epi-Tigecycline 7 days at 80° C. ([1]; dihydrochloride): 16.42; Total impurities 7 days at 80° C. ([1]; dihydrochloride): 18.82
14 | CN(C)c1cc(NC(=O)CNC(C)(C)C)c(O)c2c1C[C@H]1C[C@H]3[C@H](N(C)C)C(O)=C(C(N)=O)C(=O)[C@@]3(O)C(O)=C1C2=O [WO 2008/066935 IX, Tigecycline] | 0.15 | 0.43 | 0.70 | 2.13 | 
